The target in one assay is rat CCR2 (Rattus norvegicus (Rat), UniProt O55193). Briefly: Inhibition of native agonist (rat MCP-1)-induced intracellular calcium release, calcium flux assay in CHO cells expressing rat CCR2 and Gα16. Type of assay: cell-based. The settings on record: read-out: rCCR2 Kb. The gist of the method: (§1)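 Compound added to Calcium 4 dye-loaded adherent cells (dye loading 60 min, 37° C., HEPES pH 7.4 buffer with probenecid), then agonist: human MCP-1 at 2 nM final for hCCR2B cells, rat MCP-1 at 4 nM final for rCCR2 cells. FLIPR fluorescence change gave IC50. Kb=IC50/(1+[agonist]/EC50). Final DMSO 0.25%.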
Sequence of rat CCR2 (O55193 whole entry): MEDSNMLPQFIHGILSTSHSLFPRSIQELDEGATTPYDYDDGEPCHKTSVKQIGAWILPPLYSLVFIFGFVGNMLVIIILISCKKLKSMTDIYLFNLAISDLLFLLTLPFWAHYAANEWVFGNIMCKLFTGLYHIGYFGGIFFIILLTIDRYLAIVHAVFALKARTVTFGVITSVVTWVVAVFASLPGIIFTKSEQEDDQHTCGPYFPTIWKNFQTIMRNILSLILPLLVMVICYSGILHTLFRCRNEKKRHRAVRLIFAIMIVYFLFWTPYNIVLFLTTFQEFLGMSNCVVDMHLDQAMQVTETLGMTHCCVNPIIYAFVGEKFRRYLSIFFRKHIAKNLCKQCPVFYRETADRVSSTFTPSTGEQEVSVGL
(Calcium flux is commonly read through the fluorescence of an indicator in the cells.)

For assay [1], the target named is T1, human CCR2B (Homo sapiens (Human), UniProt P41597). As to the kind of experiment: Inhibition of [125I]-labeled MCP-1 binding to hCCR2B (radioligand binding in CHO cells). The following applies: mean Ki; [125I]-MCP-1 50 pM; CHO cells expressing human CCR2B and Gα16. An excerpt: CHO cells expressing human CCR2B were generated as follows. cDNA for human CCR2B (cloned from human blood) was cloned into plasmid pcDNA3.1 (from Invitrogen). The resulting plasmids were separately transfected into CHO cells expressing human Gα16 (from Molecular Devices). […] CHO cells expressing rat CCR2 were generated as follows. cDNA for rat CCR2 (cloned from rat macrophage) was cloned into plasmid pEF-flag (from Chinese Academy of Science). The resulting plasmids were transfected into CHO cells expressing human Gα16 (from […]).
T1 sequence (P41597 other isoform, or with tags, fused parts or gaps): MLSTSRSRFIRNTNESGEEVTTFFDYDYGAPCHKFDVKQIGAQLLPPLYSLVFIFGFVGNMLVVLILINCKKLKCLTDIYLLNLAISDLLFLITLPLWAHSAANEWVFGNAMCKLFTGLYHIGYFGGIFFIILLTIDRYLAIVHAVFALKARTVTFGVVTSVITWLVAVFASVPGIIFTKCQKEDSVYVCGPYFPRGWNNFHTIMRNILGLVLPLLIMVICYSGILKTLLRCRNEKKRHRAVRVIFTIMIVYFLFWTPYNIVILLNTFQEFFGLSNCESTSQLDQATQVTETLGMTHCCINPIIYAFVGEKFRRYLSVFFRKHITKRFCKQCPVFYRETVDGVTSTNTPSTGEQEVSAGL
Inhibition of [^125I]-Labeled MCP-1 Binding to hCCR2B
Radioligand binding assays were performed in CHO cells expressing human CCR2B and Gα16 coupling protein. All compounds were dissolved in DMSO and assays run at a final DMSO concentration of 0.5% (v/v). [^125I]-labeled human MCP-1 was purchased from PerkinElmer. Unlabelled human MCP-1 was purchased from PeproTech.
Compounds were serially diluted in DMSO before diluting into assay buffer (25 mM HEPES, pH 7.4, 5 mM MgCl2, 1 mM CaCl2, 0.5% BSA) with cryo preserved CHO cells expressing human CCR2B and the Gα16 coupling protein (30×10^3/well) and [^125I]-MCP-1 (50 pM). The reaction was incubated at room temperature for 90 minutes before transferring to GF/C filter membrane (PerkinElmer) pre-treated with 0.3% polyethyleneimine for 2 hours at 4° C. The filter membrane was washed six times with ice cold wash buffer (25 mM HEPES, pH 7.4, 5 mM MgCl2, 1 mM CaCl2, 500 mM NaCl, 0.01% (m/v) azide), dried, and sealed in a RLB sample bag (Agilent Technologies) before adding 5.0 mL Microscint 20 to each bag. Membrane was counted on Microbeta counter where background binding was determined by the presence of 100 nM MCP-1 and control total binding was determined by addition of DMSO in place of the test compound. The radioactivity values (cpm) were used to calculate the percent inhibition at a given compound concentration and the data fit to a sigmoidal curve in a semi-log plot to determine IC50 values. The corresponding Ki value is calculated as follows:
Ki=IC50/(1+[radioligand]/Kd), where [radioligand] is the concentration of the label and Kd (dissociation constant) is determined in saturation experiment with different concentrations of labeled MCP-1.

Assay [2] concerns the target T1, human CCR2B. As to the kind of experiment: Inhibition of native agonist (human MCP-1)-induced intracellular calcium release, calcium flux assay in CHO cells expressing human CCR2B and Gα16. Type of assay: cell-based. The settings on record: for IC50: read-out: hCCR2B IC50; for Kb: read-out: hCCR2B Kb. The gist of the method:
as §1

Where two headings read alike, the source gives them in different places.

The term Ki denotes the equilibrium dissociation constant of an inhibitor or competing ligand from its target. For orientation: IC50 means the point on the concentration scale where inhibition reaches its midpoint. As for `O=C(N1C[C@@H]2C[C@H]1CN2c1cc(C(F)(F)F)ccn1)[C@@]12CCC[C@@H]1C[C@@H](N1CCC(c3ccccc3)CC1)C2` [Example 49, [(2R,3aR,6aR)-2-(4-phenylpiperidin-1-yl)hexahydropentalen-3a(1H)-yl]{(1S,4S)-5-[4-(trifluoromethyl)pyridin-2-yl]-2,5-diazabicyclo[2.2.1]hept-2-yl}methanone], the Kb at rat CCR2 turned out to be 23 nM. The same compound showed an inhibition constant Ki on human CCR2B [1] of 15 nM. For the same compound, on human CCR2B [2], the IC50 turned out to be 37 nM and the Kb stood at 9 nM.

With `C[C@@H]1COCC[C@@H]1N[C@@H]1C[C@H]2CCC[C@@]2(C(=O)N2C[C@@H]3C[C@H]2CN3c2cc(C(F)(F)F)ccn2)C1` [Example 63, [(2R,3aR,6aR)-2-{[(3S,4S)-3-methyltetrahydro-2H-pyran-4-yl]amino}hexahydropentalen-3a(1H)-yl]{(1S,4S)-5-[4-(trifluoromethyl)pyridin-2-yl]-2,5-diazabicyclo[2.2.1]hept-2-yl}methanone], the Kb on rat CCR2 was determined as 6 nM; on human CCR2B [2] it was 4 nM. This compound also displayed a Ki on human CCR2B [1] of 10 nM. For the same compound, the IC50 at human CCR2B [2] (calcium flux, human MCP-1 2 nM) turned out to be 17.9 nM.

Regarding `CO[C@@H]1COCC[C@@H]1N[C@@H]1C[C@H]2CCC[C@@]2(C(=O)N2C[C@@H]3C[C@H]2CN3c2cccc(C(F)(F)F)c2)C1` [Example 18, 1,5-anhydro-2,3-dideoxy-4-O-methyl-3-{[(2R,3aR,6aR)-3a-({(1S,4S)-5-[3-(trifluoromethyl)phenyl]-2,5-diazabicyclo[2.2.1]hept-2-yl}carbonyl)octahydropentalen-2-yl]amino}-D-erythro-pentitol], the figures for the Kb on rat CCR2 and on human CCR2B [2] were 6 nM and 19 nM, respectively. The Ki on human CCR2B [1] is 207 nM. The 50% inhibitory concentration (IC50) on human CCR2B [2] (calcium flux, human MCP-1 2 nM) was found to be 76.4 nM.

With `CC[C@@H]1COCC[C@@H]1N[C@@H]1C[C@H]2CCC[C@@]2(C(=O)N2C[C@@H]3C[C@H]2CN3c2cc(C(F)(F)F)ccn2)C1` [Example 65, [(2R,3aR,6aR)-2-{[(3S,4S)-3-ethyltetrahydro-2H-pyran-4-yl]amino}hexahydropentalen-3a(1H)-yl]{(1S,4S)-5-[4-(trifluoromethyl)pyridin-2-yl]-2,5-diazabicyclo[2.2.1]hept-2-yl}methanone], the Kb at rat CCR2 came to 8 nM. The inhibition constant Ki on human CCR2B [1] turned out to be 6 nM. Further, on human CCR2B [2], the concentration for half-maximal inhibition (IC50) was 28 nM and the Kb is 7 nM.

With `C[C@@H]1COCC[C@H]1N[C@@H]1C[C@H]2CCC[C@@]2(C(=O)N2C[C@@H]3C[C@H]2CN3c2cc(C(F)(F)F)ccn2)C1` [Example 64, [(2R,3aR,6aR)-2-{[(3S,4R)-3-methyltetrahydro-2H-pyran-4-yl]amino}hexahydropentalen-3a(1H)-yl]{(1S,4S)-5-[4-(trifluoromethyl)pyridin-2-yl]-2,5-diazabicyclo[2.2.1]hept-2-yl}methanone], the results for the Kb at rat CCR2 and at human CCR2B [2] were 9 nM and 4 nM, respectively. Moreover, the affinity at human CCR2B [1], expressed as Ki, was 12 nM. In addition, at human CCR2B [2] (calcium flux, human MCP-1 2 nM), the IC50 was found to be 16.5 nM.

On to `CO[C@@H]1COCC[C@@H]1N(C)[C@@H]1C[C@H]2CCC[C@@]2(C(=O)N2C[C@@H]3C[C@H]2CN3c2ccc(Cl)c(C(F)(F)F)c2)C1` [Example 51, 1,5-anhydro-3-{[(2R,3aR,6aR)-3a-({(1S,4S)-5-[4-chloro-3-(trifluoromethyl)phenyl]-2,5-diazabicyclo[2.2.1]hept-2-yl}carbonyl)octahydropentalen-2-yl](methyl)amino}-2,3-dideoxy-4-O-methyl-D-erythro-pentitol], for which the Kb amounted to 29 nM on rat CCR2 and 11 nM on human CCR2B [2]. The affinity on human CCR2B [1], expressed as Ki, was 21 nM. For the same compound, the half-inhibitory concentration (IC50) at human CCR2B [2] (calcium flux, human MCP-1 2 nM) was 43.3 nM.

On to `CO[C@@H]1COCC[C@@H]1N[C@@H]1C[C@H]2CCC[C@@]2(C(=O)N2C[C@@H]3C[C@H]2CN3c2cc(C(F)(F)F)ccn2)C1` [Example 2, 1,5-anhydro-2,3-dideoxy-4-O-methyl-3-{[(2R,3aR,6aR)-3a-({(1S,4S)-5-[4-(trifluoromethyl)pyridin-2-yl]-2,5-diazabicyclo[2.2.1]hept-2-yl}carbonyl)octahydropentalen-2-yl]amino}-D-erythro-pentitol], for which the Kb worked out at 12 nM at rat CCR2 and 19 nM at human CCR2B [2]. Further, the inhibition constant Ki at human CCR2B [1] turned out to be 60 nM. Moreover, the IC50 on human CCR2B [2] (calcium flux, human MCP-1 2 nM) was 76.7 nM.

For `CO[C@@H]1COCC[C@@H]1N[C@@H]1C[C@H]2CCC[C@@]2(C(=O)N2C[C@@H]3C[C@H]2CN3C(=O)OC(C)(C)C)C1` [Example 60, 1,5-anhydro-3-{[(2R,3aR,6aR)-3a-{[(1S,4S)-5-(tert-butoxycarbonyl)-2,5-diazabicyclo[2.2.1]hept-2-yl]carbonyl}octahydropentalen-2-yl]amino}-2,3-dideoxy-4-O-methyl-D-erythro-pentitol], the values for the Kb on rat CCR2 and at human CCR2B [2] were 19 nM and 81 nM, respectively. Moreover, the inhibition constant Ki on human CCR2B [1] was 552 nM. Also, on human CCR2B [2], the IC50 turned out to be 328 nM.

For the compound `CO[C@@H]1COCC[C@@H]1N[C@@H]1C[C@H]2CCC[C@@]2(C(=O)N2C[C@@H]3C[C@H]2CN3c2cc(F)cc(C(F)(F)F)c2)C1` [Example 25, 1,5-anhydro-2,3-dideoxy-3-{[(2R,3aR,6aR)-3a-({(1S,4S)-5-[3-fluoro-5-(trifluoromethyl)phenyl]-2,5-diazabicyclo[2.2.1]hept-2-yl}carbonyl)octahydropentalen-2-yl]amino}-4-O-methyl-D-erythro-pentitol], the figures for the Kb on rat CCR2 and on human CCR2B [2] were 5 nM and 23 nM, respectively. This compound also gave a Ki at human CCR2B [1] of 271 nM. The IC50 at human CCR2B [2] (calcium flux, human MCP-1 2 nM) amounted to 92.2 nM.

With `CO[C@@H]1COCC[C@@H]1N[C@@H]1C[C@H]2CCC[C@@]2(C(=O)N2C[C@@H]3C[C@H]2CN3c2cccc(C(F)(F)F)n2)C1` [Example 22, 1,5-anhydro-2,3-dideoxy-4-O-methyl-3-{[(2R,3aR,6aR)-3a-({(1S,4S)-5-[6-(trifluoromethyl)pyridin-2-yl]-2,5-diazabicyclo[2.2.1]hept-2-yl}carbonyl)octahydropentalen-2-yl]amino}-D-erythro-pentitol], the Kb was 12 nM at rat CCR2 and 38 nM on human CCR2B [2]. The affinity at human CCR2B [1] corresponds to a Ki of 120 nM. Moreover, the IC50 at human CCR2B [2] (calcium flux, human MCP-1 2 nM) amounted to 153 nM.

As to `CO[C@@H]1COCC[C@@H]1N[C@@H]1C[C@H]2CCC[C@@]2(C(=O)N2C[C@@H]3C[C@H]2CN3c2ccc(F)c(C(F)(F)F)c2)C1` [Example 15, 1,5-anhydro-2,3-dideoxy-3-{[(2R,3aR,6aR)-3a-({(1S,4S)-5-[4-fluoro-3-(trifluoromethyl)phenyl]-2,5-diazabicyclo[2.2.1]hept-2-yl}carbonyl)octahydropentalen-2-yl]amino}-4-O-methyl-D-erythro-pentitol], the Kb at rat CCR2 is 3 nM; on human CCR2B [2], 9 nM. This compound gave a Ki on human CCR2B [1] of 29 nM. The IC50 on human CCR2B [2] came to 34.7 nM.

As for `CO[C@@H]1COCC[C@@H]1N[C@@H]1C[C@H]2CCC[C@@]2(C(=O)N2C[C@@H]3C[C@H]2CN3c2ccc(Cl)c(Cl)c2)C1` [Example 40, 1,5-anhydro-2,3-dideoxy-3-{[(2R,3aR,6aR)-3a-{[(1S,4S)-5-(3,4-dichlorophenyl)-2,5-diazabicyclo[2.2.1]hept-2-yl]carbonyl}octahydropentalen-2-yl]amino}-4-O-methyl-D-erythro-pentitol], the results for the Kb on rat CCR2 and on human CCR2B [2] were 3 nM and 10 nM, respectively. Further, the Ki at human CCR2B [1] turned out to be 38 nM. At human CCR2B [2] (calcium flux, human MCP-1 2 nM), the IC50 came to 41.5 nM.

For `CO[C@@H]1COCC[C@@H]1N[C@@H]1C[C@H]2CCC[C@@]2(C(=O)N2C[C@@H]3C[C@H]2CN3c2cccc(OC(F)(F)F)c2)C1` [Example 29, 1,5-anhydro-2,3-dideoxy-4-O-methyl-3-{[(2R,3aR,6aR)-3a-({(1S,4S)-5-[3-(trifluoromethoxy)phenyl]-2,5-diazabicyclo[2.2.1]hept-2-yl}carbonyl)octahydropentalen-2-yl]amino}-D-erythro-pentitol], the Kb at rat CCR2 was found to be 8 nM; on human CCR2B [2], 36 nM. At human CCR2B [1], this compound came in with a Ki of 473 nM. Also, the half-inhibitory concentration (IC50) at human CCR2B [2] (calcium flux, human MCP-1 2 nM) is 148 nM.

(Values after patent US8906911B2, “Chemokine receptor antagonists” (AbbVie Inc., priority 2012, dated 2014).)
